Experimental data as given in US9186356B2, “Methods for treating frontotemporal lobar degeneration with ubiquitinated inclusions (FTLD-U)” (Academia Sinica, priority 2011, dated 2015).

What was measured:
FTLD-U mice = test: Motor function of FTLD-U mice treated with other autophagy inducers (FIG. 5); type: in vivo; details: tamoxifen 80 mg/Kg s.c. once per day one week, carbamazepine 50 mg/Kg i.p. once per day two weeks, spermidine 50 mg/Kg i.p. once per day one week
Method: Other autophage inducers for administration to the FTLD-U mice include tamoxifen, carbamazepine, calpastatin, minoxidial, spermidine and trehalose. […] Carbamazepine can lower inositol and IP3 levels. Calpastatin is a calpain inhibitor. Minoxidial is a K^+ATP channel opener. Spermidine can decrease ROS and increases beclin 1. The effect of trehalose is unknown. Tamoxifen (80 mg/Kg) was administered via subcutaneous injection, once per day for one week. carbamazepine (50 mg/Kg) was administered i.p. once per day for two weeks. Spermidine (50 mg/Kg) was administered i.p. once per day for one week.

ALS mice (SOD1G93A) = details: cited from earlier work

SMILES	motor function deficits (FTLD-U mice)	mitochondria impairment (ALS mice (SOD1G93A))
CC/C(=C(\c1ccccc1)c1ccc(OCCN(C)C)cc1)c1ccccc1 [tamoxifen]	rescued the motor function deficits	–
CO[C@H]1C[C@@H]2CC[C@@H](C)[C@@](O)(O2)C(=O)C(=O)N2CCCC[C@H]2C(=O)O[C@H]([C@H](C)C[C@@H]2CC[C@@H](O)[C@H](OC)C2)CC(=O)[C@H](C)/C=C(\C)[C@@H](O)[C@@H](OC)C(=O)[C@H](C)C[C@H](C)/C=C/C=C/C=C/1C [rapamycin]	–	more server mitochondria impairment
NCCCCNCCCN [spermidine]	rescued the motor function deficits	–
NC(=O)N1c2ccccc2C=Cc2ccccc21 [carbamazepine]	rescued the motor function deficits	–
